The subject of data set [1] is human ovarian cancer SK-OV-3. The settings on record: 24 mg/kg, D0-4 IV; for Body weight change (%) D4: nude mice; for T/C (%) D22 / Tumor volume (mm^3) (D0) / Tumor volume (mm^3) (D22): SK-OV-3 xenograft in nude mice; for Tumor volume (mm^3) (D0): baseline at grouping (D0).
Text: Purpose: to evaluate and compare the inhibitory activity of the water soluble paclitaxel derivatives, paclitaxel and Abraxane® on subcutaneously xenografted tumor of human ovarian cancer SK-OV-3 in nude mice.
Human ovarian cancer SK-OV-3 cells were subcutaneously inoculated to nude mice. After the tumor volume reached 100-150 mm^3, the animals were randomly divided into groups (D0), and administered with the water soluble paclitaxel derivatives of the following formula, paclitaxel, and Abraxane®, respectively once per day for 5 days. The tumor volume was measured 2-3 times per week, the animals were weighed and the data were recorded until day 22 (D22) after grouping.
(§1) The tumor volume (V) was calculated according to the equation: V=½×a×b^2, wherein a and b represent the length and the width, respectively.
T/C (%)=(T−T0)/(C−C0)×100, wherein T and C represent the tumor volume at the end of the experiment, and T0 and C0 represent the tumor volume at the beginning of the experiment.
A short description of data set [2]: In vitro dissociation in blood plasma of rabbit. Type of data set: in vitro ADME, New Zealand white rabbits. Conditions: fresh New Zealand white rabbit plasma, 37° C. The method, then:
The obtained water soluble taxane derivatives of the following formulae were formulated as 0.2 mg/ml aqueous solutions. […]

A short description of data set [3]: In vitro dissociation in blood plasma of rat. It counts as in vitro ADME, SD rats. The settings on record: fresh SD rat plasma, 37° C.; for Sampling time/Dissociation percent (%) 2 min: 2 min incubation; for Sampling time/Dissociation percent (%) 5 min: 5 min incubation; for Sampling time/Dissociation percent (%) 10 min: 10 min incubation. The procedure:
The obtained water soluble taxane derivatives of the following formulae were formulated as 0.2 mg/ml aqueous solutions. […] After 2 min, 5 min and 10 min of incubation, 0.2 ml of solutions were respectively taken from each of the samples, and added to acetonitrile (0.4 ml) cooled to −20° C. for precipitation of protein.

Data set [4] deals with human prostate cancer PC-3. The experiment in a line: Inhibitory activity of cabazitaxel derivatives on subcutaneously xenografted tumor PC-3 in nude mice. Conditions: D0 IV; for T/C (%) D20 / Tumor volume (mm^3) (D20) / Tumor inhibitory percent (%) D20 / Tumor volume (mm^3) (D0): PC-3 xenograft in nude mice; for Tumor inhibitory percent (%) D20: P = 0.000 vs control; for Tumor volume (mm^3) (D0): baseline at grouping (D0); for Weight change (%) D6: nude mice.
Text: Purpose: to evaluate and compare the inhibitory activity of the water soluble cabazitaxel derivatives and cabazitaxel on subcutaneously xenografted tumor of human prostate cancer PC-3 in nude mice.
Human prostate cancer PC-3 cells were subcutaneously inoculated into nude mice. After the tumor volume reached 100-150 mm^3, the animals were randomly divided into several groups, and administered with the water soluble cabazitaxel derivatives of the following formula and cabazitaxel, respectively once on the same day (D0). The tumor volume was measured 2-3 times per week, the animals were weighed and the data were recorded until day 20 (D20) after grouping.
as §1
T/C (%)=(T−T0)/(C−C0)×100, wherein T and C represent the tumor volume at the end of the experiment; and T0 and C0 represent the tumor volume at the beginning of the experiment.

Molecules are shown by their SMILES.

Turning to `CC(=O)O[C@H]1C(=O)[C@@]2(C)[C@H]([C@H](OC(=O)c3ccccc3)[C@]3(O)C[C@H](OC(=O)[C@H](OC(=O)[C@H](F)CCN(C)C)[C@@H](NC(=O)c4ccccc4)c4ccccc4)C(C)=C1C3(C)C)[C@]1(OC(C)=O)CO[C@@H]1C[C@@H]2O.CS(=O)(=O)O` [Compound C1, 2′-O-[4-N,N-dimethylamino-2(R)-fluorobutyryl]paclitaxel methanesulfonate], in data set [1], the “Body weight change (%) D4” value is reported as −5.9%, the “T/C (%) D22” value is recorded as −63% and the “Tumor volume (mm^3) (D0)” value was 133.6 ± 9.5 mm^3. For the same molecule, in data set [2], the “Sampling time/Dissociation percent (%) 2 min” value was 77.2%, the “Sampling time/Dissociation percent (%) 5 min” value amounted to 98.4% and the “Sampling time/Dissociation percent (%) 10 min” value came to 100%. In data set [3], the “Sampling time/Dissociation percent (%) 2 min” value is 64.3%, the “Sampling time/Dissociation percent (%) 5 min” value turned out to be 97.0% and the “Sampling time/Dissociation percent (%) 10 min” value was 100%.
In the case of `CO[C@H]1C(=O)[C@]2(C)[C@@H](OC)C[C@H]3OC[C@@]3(OC(C)=O)[C@H]2[C@H](OC(=O)c2ccccc2)[C@]2(O)C[C@H](OC(=O)[C@H](OC(=O)[C@H](F)CCN(C)C(C)C)[C@@H](NC(=O)OC(C)(C)C)c3ccccc3)C(C)=C1C2(C)C.Cl` [Compound C34, 2′-O-[4-N-methyl-N-isopropylamino-2(R)-fluorobutyryl]cabazitaxel hydrochloride], in data set [4] (13 mg/kg), the “T/C (%) D20” value is −45%, the “Tumor volume (mm^3) (D20)” value was 42.8 ± 11.9 mm^3, the “Tumor inhibitory percent (%) D20” value is reported as 101% and the “Tumor volume (mm^3) (D0)” value worked out at 111.7 ± 3.2 mm^3.
As for `CCN(C)CC[C@@H](F)C(=O)O[C@@H](C(=O)O[C@H]1C[C@@]2(O)[C@@H](OC(=O)c3ccccc3)[C@@H]3[C@]4(OC(C)=O)CO[C@@H]4C[C@H](OC)[C@@]3(C)C(=O)[C@H](OC)C(=C1C)C2(C)C)[C@@H](NC(=O)OC(C)(C)C)c1ccccc1.O=C(O)/C=C\C(=O)O` [Compound C32, 2′-O-[4-N-methyl-N-ethylamino-2(R)-fluorobutyryl]cabazitaxel maleate], in data set [4] (13 mg/kg), the “Weight change (%) D6” value is recorded as −14.7%, the “T/C (%) D20” value is recorded as −56%, the “Tumor volume (mm^3) (D20)” value was determined as 35.8 ± 12.7 mm^3 and the “Tumor inhibitory percent (%) D20” value turned out to be 128%. Besides, the “Tumor volume (mm^3) (D0)” value in data set [4] (13 mg/kg) came to 112.4 ± 3.0 mm^3.
With `CC(=O)O[C@H]1C(=O)[C@@]2(C)[C@H]([C@H](OC(=O)c3ccccc3)[C@]3(O)C[C@H](OC(=O)[C@H](OC(=O)C(F)CCN(C)C)[C@@H](NC(=O)c4ccccc4)c4ccccc4)C(C)=C1C3(C)C)[C@]1(OC(C)=O)CO[C@@H]1C[C@@H]2O.CS(=O)(=O)O` (stereo partly drawn) [Compound C3, 2′-O-[4-N,N-dimethylamino-2(R,S)-fluorobutyryl]paclitaxel methanesulfonate], in data set [1], the “Body weight change (%) D4” value was −6.0%, the “T/C (%) D22” value is given as −64% and the “Tumor volume (mm^3) (D22)” value was 50.6 ± 9.7 mm^3. Besides, in data set [2], the “Sampling time/Dissociation percent (%) 2 min” value is recorded as 76.5%, the “Sampling time/Dissociation percent (%) 5 min” value worked out at 94.6% and the “Sampling time/Dissociation percent (%) 10 min” value is 100%. In addition, in data set [3], the “Sampling time/Dissociation percent (%) 2 min” value worked out at 63.7%, the “Sampling time/Dissociation percent (%) 5 min” value was 96.8% and the “Sampling time/Dissociation percent (%) 10 min” value was found to be 100%.
For the molecule `CO[C@H]1C(=O)[C@]2(C)[C@@H](OC)C[C@H]3OC[C@@]3(OC(C)=O)[C@H]2[C@H](OC(=O)c2ccccc2)[C@]2(O)C[C@H](OC(=O)[C@H](OC(=O)[C@@H](CCN(C)C)C(F)F)[C@@H](NC(=O)OC(C)(C)C)c3ccccc3)C(C)=C1C2(C)C.Cc1ccc(S(=O)(=O)O)cc1` [Compound C36, 2′-O-[4-N,N-dimethylamino-2(R)-2-difluoromethylbutyryl]cabazitaxel p-toluene sulfonate], in data set [4] (13 mg/kg), the “T/C (%) D20” value was −37% and the “Tumor inhibitory percent (%) D20” value was 85%.
As to `CCN(CC)CC[C@@H](F)C(=O)O[C@@H](C(=O)O[C@H]1C[C@@]2(O)[C@@H](OC(=O)c3ccccc3)[C@@H]3[C@]4(OC(C)=O)CO[C@@H]4C[C@H](OC)[C@@]3(C)C(=O)[C@H](OC)C(=C1C)C2(C)C)[C@@H](NC(=O)OC(C)(C)C)c1ccccc1.CS(=O)(=O)O` [Compound C33, 2′-O-[4-N,N-diethylamino-2(R)-fluorobutyryl]cabazitaxel methanesulfonate], in data set [4] (13 mg/kg), the “Weight change (%) D6” value is −15.1%, the “T/C (%) D20” value is on record as −50%, the “Tumor volume (mm^3) (D20)” value stood at 38.6 ± 13.4 mm^3 and the “Tumor inhibitory percent (%) D20” value stood at 114%. In data set [4] (13 mg/kg), the “Tumor volume (mm^3) (D0)” value was 112.0 ± 2.4 mm^3.
For the molecule `CCN(C)CC[C@@H](F)C(=O)O[C@@H](C(=O)O[C@H]1C[C@@]2(O)[C@@H](OC(=O)c3ccccc3)[C@@H]3[C@]4(OC(C)=O)CO[C@@H]4C[C@H](O)[C@@]3(C)C(=O)[C@H](OC(C)=O)C(=C1C)C2(C)C)[C@@H](NC(=O)c1ccccc1)c1ccccc1.CS(=O)(=O)O` [Compound C18, 2′-O-[4-N-methyl-N-ethylamino-2(R)-fluorobutyryl]paclitaxel methanesulfonate], in data set [1], the “Body weight change (%) D4” value is on record as −7.0%, the “T/C (%) D22” value is given as −53%, the “Tumor volume (mm^3) (D22)” value is reported as 55.7 ± 10.6 mm^3 and the “Tumor volume (mm^3) (D0)” value was 133.6 ± 9.4 mm^3.
With `CO[C@H]1C(=O)[C@]2(C)[C@@H](OC)C[C@H]3OC[C@@]3(OC(C)=O)[C@H]2[C@H](OC(=O)c2ccccc2)[C@]2(O)C[C@H](OC(=O)[C@H](O)[C@@H](NC(=O)OC(C)(C)C)c3ccccc3)C(C)=C1C2(C)C` [cabazitaxel, reference compound], in data set [4] (7 mg/kg), the “Weight change (%) D6” value is given as −13.8%, the “T/C (%) D20” value is −27%, the “Tumor volume (mm^3) (D20)” value is listed as 79.9 ± 24.8 mm^3 and the “Tumor inhibitory percent (%) D20” value amounted to 127%. For the same molecule, in data set [4] (7 mg/kg), the “Tumor volume (mm^3) (D0)” value was 111.7 ± 1.8 mm^3.
On to `CCN(CC)CC[C@H](F)C(=O)O[C@@H](C(=O)O[C@H]1C[C@@]2(O)[C@@H](OC(=O)c3ccccc3)[C@@H]3[C@]4(OC(C)=O)CO[C@@H]4C[C@H](O)[C@@]3(C)C(=O)[C@H](OC(C)=O)C(=C1C)C2(C)C)[C@@H](NC(=O)c1ccccc1)c1ccccc1.O=C(O)/C=C/C(=O)O` [Compound C19, 2′-O-[4-N,N-diethylamino-2(S)-fluorobutyryl]paclitaxel fumarate], for which, in data set [1], the “Body weight change (%) D4” value is recorded as −8.1%, the “T/C (%) D22” value is reported as −44%, the “Tumor volume (mm^3) (D22)” value is 55.7 ± 10.1 mm^3 and the “Tumor volume (mm^3) (D0)” value is on record as 133.6 ± 9.4 mm^3.
Regarding `CC(=O)O[C@H]1C(=O)[C@@]2(C)[C@H]([C@H](OC(=O)c3ccccc3)[C@]3(O)C[C@H](OC(=O)[C@H](OC(=O)[C@@H](F)CCN(C)C)[C@@H](NC(=O)c4ccccc4)c4ccccc4)C(C)=C1C3(C)C)[C@]1(OC(C)=O)CO[C@@H]1C[C@@H]2O.CS(=O)(=O)O` [Compound C2, 2′-O-[4-N,N-dimethylamino-2(S)-fluorobutyryl]paclitaxel methanesulfonate], in data set [1], the “Body weight change (%) D4” value is on record as −5.8%, the “T/C (%) D22” value is on record as −61% and the “Tumor volume (mm^3) (D22)” value came out at 51.2 ± 11.2 mm^3. Moreover, in data set [2], the “Sampling time/Dissociation percent (%) 2 min” value was found to be 69.7%, the “Sampling time/Dissociation percent (%) 5 min” value was 98.1% and the “Sampling time/Dissociation percent (%) 10 min” value stood at 100%. For the same molecule, in data set [3], the “Sampling time/Dissociation percent (%) 2 min” value worked out at 62.8%, the “Sampling time/Dissociation percent (%) 5 min” value was found to be 96.5% and the “Sampling time/Dissociation percent (%) 10 min” value amounted to 100%.
`CO[C@H]1C(=O)[C@]2(C)[C@@H](OC)C[C@H]3OC[C@@]3(OC(C)=O)[C@H]2[C@H](OC(=O)c2ccccc2)[C@]2(O)C[C@H](OC(=O)[C@H](OC(=O)[C@@H](CCN(C)C)C(F)(F)F)[C@@H](NC(=O)OC(C)(C)C)c3ccccc3)C(C)=C1C2(C)C.CS(=O)(=O)O` [Compound C35, 2′-O-[4-N,N-dimethylamino-2(R)-2-trifluoromethylbutyryl]cabazitaxel methanesulfonate]: in data set [4] (13 mg/kg), the “Weight change (%) D6” value is listed as −15.8%, the “T/C (%) D20” value is given as −46%, the “Tumor volume (mm^3) (D20)” value is on record as 42.3 ± 12.6 mm^3 and the “Tumor inhibitory percent (%) D20” value came out at 105%. In addition, in data set [4] (13 mg/kg), the “Tumor volume (mm^3) (D0)” value is listed as 110.2 ± 4.6 mm^3.
With `CC(=O)OC1C(=O)C2(C)C(O)CC3OCC3(OC(C)=O)C2C(OC(=O)c2ccccc2)C2(O)CC(OC(=O)C(OC(=O)C(CCN(C)C)C(F)(F)F)C(NC(=O)c3ccccc3)c3ccccc3)C(C)=C1C2(C)C.Cc1ccc(S(=O)(=O)O)cc1` [Compound C21, 2′-O-[4-N,N-dimethylamino-2(R,S)-2-trifluoromethylbutyryl]paclitaxel p-toluene sulfonate], in data set [1], the “Body weight change (%) D4” value is recorded as −8.9%, the “T/C (%) D22” value is reported as −48%, the “Tumor volume (mm^3) (D22)” value came out at 57.3 ± 11.4 mm^3 and the “Tumor volume (mm^3) (D0)” value came to 134.9 ± 11.4 mm^3.
